In a melting point compilation (Tetko et al.; mined from patent text by program, amines drawn as free bases though some values may be those of a salt) one finds melting point data, which are given here for 87 compounds.

The term melting point denotes the temperature, or range, at which the solid turns liquid. Compound `Nc1cc(C(=O)O)cc(SCc2ccccc2)c1-c1ccccc1` gave a melting point of 173 to 174 °C.
The same measure for `CNc1nc(-c2cccc(NC(=O)c3ccc(OC)c(OC4CCCC4)c3)c2)c2cc(OC)c(OC)cc2n1`: 129 to 131 °C.
The same measure for `Cc1ccc(S(=O)(=O)OCCCCCCn2c3c(c4ccccc4c2=O)C(=O)c2ccccc2-3)cc1`: 146 to 149 °C.
Compound `C=Cc1nc2cc(Br)ccc2o1` had a melting point of 55 to 56 °C.
Compound `CCCCCCCCCCCCCCOc1ccc(CC(=O)OC)cc1` yielded a melting point of 36 to 38 °C.
Regarding `CC(C)C(=O)Oc1ccc2c(c1Cl)Sc1ccccc1N2`, the melting point turned out to be 155 °C.
The same measure for `CC(=O)N(c1cc(N)c(F)cc1Cl)S(=O)(=O)CCl`: 176 to 180 °C.
The same measure for `CC[C@H](C)[C@H](NC(=O)OC(C)(C)C)C(=O)N[C@H](C(=O)N[C@@H](Cc1ccc2ccccc2c1)[C@@H](O)[C@@H](O)CC(C)C)[C@@H](C)CC`: 168 to 169 °C.
For `O=C(Nc1ccccc1N1CCc2ccccc21)c1ccccc1F`, the melting point fell in the range of 139 to 141 °C.
The same measure for `CCn1ncc2c1ncc1c(=O)[nH]c3ncnn3c12`: 175 to 177 °C.
To `Oc1ccc2c(c1)CCCC(c1ccccc1)=C2c1ccc(OCCCCSCCCC(F)(F)C(F)(F)F)cc1` belongs 167 °C.
As to `CN(C)C(=O)c1cc(N2CCN([C@H]3CC[C@@H](c4cn(C)c5ccc(C#N)cc54)CC3)CC2)c2ncccc2c1`, the melting point lay in the range of 163 to 165 °C.
In turn, `Cc1ccc(-c2c(Cl)nc(-c3ccccc3)nc2Cl)cc1` showed a melting point of 165 to 166 °C.
Regarding `Cc1c(NC(=O)c2ccc(-c3cc4ccccc4o3)cc2F)ccc2cc(CN3CCCC3)cnc12`, the melting point is 202 to 203 °C.
The same measure for `CNC(=O)ON=C1N=C(c2ccccc2)C(C)(C)S1`: 135 to 137 °C; for `CC(C)(O)C(=O)c1ccc(Oc2ccc(C(=O)C(C)(C)O)cc2)cc1`: 96 to 99 °C; for `CC1CC(C)CC2(C1)OC(N)=NC2=O` (configuration not stated): 276 to 281 °C.
In turn, `CCCCOC(=O)c1c(Cl)nc(CCCC)n1Cc1ccc2oc(-c3ccccc3-c3nnn[nH]3)c(Br)c2c1` yielded a melting point of 88 to 90 °C.
To `CCOC(=O)c1ccc(OCCCCCCCCCCC2c3c(c4ccccc4c4ccccc34)-c3c2c2ccccc2c2ccccc32)cc1` belongs 122 to 124 °C; to `Cn1nc(CNC(=O)Nc2ccccc2)nc1NCCCOc1cccc(CN2CCCCC2)c1`, 120 to 121 °C; to `CC(=O)Oc1c(C)cc(C(=O)Nc2c(CO)nc3c(C)cc(C)cc3c2-c2ccccc2Cl)cc1C`, 134 to 136 °C.
To `CCNC(=O)N(CC)C(=O)Nc1ccn(Cc2ccccc2Cl)c(=O)c1NC(=O)N[C@@H](CC(=O)O)c1ccc(C)cc1` belongs 128 to 130 °C.
The same measure for `O=C(CCCCCN1CCN(c2cccc3c2CCCC3)CC1)N1Cc2ccccc2C1`: 115 °C.
For `CCOC(=O)c1cccc(-c2ccc(Cl)c3cc(CO)sc23)c1`, the melting point lay within 119 to 120 °C.
In turn, `COc1ccc2[nH]c(=O)c(-c3nnn(Cc4cccc(OCc5ccc6ccccc6n5)c4)n3)cc2c1` showed a melting point of 213 to 214 °C.
`CC(=O)c1cc(CO)c(OCCCCC#N)cc1OCCCCC#N` showed a melting point of 98 to 99 °C.
To `Cc1cccc(NC(=O)CN2CCN(c3ccccc3C#N)CC2)c1` belongs 168 to 170 °C; to `O=C(O)CCc1ccc(-c2cccc(-c3ccnc4c(C(=O)c5cccs5)cnn34)c2)cc1`, 117 to 119 °C.
In the case of `NS(=O)(=O)c1cc(C(=O)O)cc(NCc2ccccc2)c1S(=O)c1ccccc1` (configuration not stated), the melting point came to 234 °C.
Compound `c1ccc(Cc2cccc3c2[nH]c2ccccc23)cc1` displayed a melting point of 117 °C.
The same measure for `Nc1c(NCCCN(Cc2ccccc2)c2ccccn2)c(=O)c1=O`: 228 to 231 °C.
To `CC(=Cc1cn(-c2cccnc2)c2ccccc12)C(=O)O` belongs 213 to 215 °C; to `CC(C)(C)OC(=O)C(=[N+]=[N-])C(=O)CCl`, 40 to 41 °C; to `CS(=O)(=O)c1cc(CCC(=O)O)cc(-c2nc(=O)c3ccccc3s2)n1`, 306 °C.
To `CN(C(=O)CCCOc1ccc2nc3n(c(=O)c2c1)CC(=O)N3)C1CCCCC1` belongs 200 to 202 °C; to `Cc1cc(C)nc(N(C#N)c2ccccc2)n1`, 153 to 154 °C.
Turning to `CN(OCc1ccccc1)S(=O)(=O)c1ccccc1S(N)(=O)=O`, the melting point is 122 to 128 °C.
To `CCOC(Cc1ccc(OCc2nc3ccc(OC)cc3n2C)cc1)C(=O)OC` (configuration not stated) belongs 88 to 92 °C; to `CCc1c(N)c(Cl)cc(Cc2cc(Cl)c(N)c(CC)c2Cl)c1Cl`, 146 to 148 °C.
The same measure for `O=C(O)c1ccc(Oc2ccc(Oc3ccccc3)cc2)cc1`: 185 °C; for `CC(C)c1ccc(-c2c(Cl)c(CN3C(=O)CCC3=O)nc3sc4c(c23)CCN(Cc2ccccc2)C4)cc1`: 201 to 202 °C.
Consider `COc1cccc2c1CC(NC(C)=O)CC2` (configuration not stated), for which the melting point lay within 156 to 157 °C.
The same measure for `CNC(=O)Cn1c(-c2ccc(Cl)cc2)nc2cccnc21`: 238 °C.
The same measure for `CC1(C)Cc2cc(C3=NNC(=O)C4CCC34)ccc2NC1=O` (configuration not stated): 301 to 302 °C; for `CC(O)c1cccc(S(N)(=O)=O)c1` (configuration not stated): 137 to 139 °C.
`COc1cccc2c1OC(C(=O)N1CCC(NC(=O)Nc3ccccc3)CC1)CC2` (configuration not stated) returned a melting point of 215 to 216 °C.
With `N#CC(C(=O)c1nn(-c2ccccc2)c2c1CSc1ccccc1-2)C(=S)Nc1ccccc1` (configuration not stated), the melting point fell in the range of 167 to 170 °C.
The compound `COc1cc(OC)c(N2CCCC2)cc1/C=C/C(=O)c1ccc(S(=O)(=O)NCCCn2ccnc2)cc1` displayed a melting point of 140 to 143 °C.
To `Cc1oc(-c2ccccc2)nc1COc1ccc(Cc2nc(-c3ccccc3)c(CCC(=O)O)[nH]2)cc1` belongs 193 to 196 °C; to `CCCCc1cc(C#N)sc1-c1ccc2c(c1)C(C)(C)OC(=O)N2`, 167 to 168 °C.
Take `CC(=O)C(C(=O)c1ccccc1)N(C)C` (configuration not stated): the melting point is 72 to 74 °C.
`CC(C)CCN1CCC(CNC(=O)c2cc(Cl)c(N)[nH]c2=O)CC1` yielded a melting point of 131 to 135 °C.
To `CSCC(=O)Nc1ccc(C2=NNC(=O)CC2C)cc1` (configuration not stated) belongs 220 to 222 °C; to `CN1CCN(c2ccc(-c3cc(-c4c(-c5ccccn5)nc5ccccn45)ccn3)cc2)CC1`, 150 °C.
As to `CC12CCC3c4cccc(N)c4CCC3C1CCC2O` (configuration not stated), the melting point lay in the range of 189 to 192 °C.
The same measure for `CN(C)CCCOC(=O)c1cccc2c(-c3ccccc3)c([N+](=O)[O-])oc12`: 65.5 to 67.5 °C; for `Cc1ncncc1NC(=O)Nc1ccc(-n2nc(C(F)(F)F)cc2C2CC2)c(F)c1`: 198 to 202 °C; for `CCn1ncc2c(O)c3c(nc21)CCc1ccccc1C3=O`: 154 to 155 °C.
As for `O=C(NC1N=C(c2ccccc2)c2ccccc2NC1=O)c1cccc2ccccc12` (racemic), the melting point was in the range of 162 to 167 °C.
The same measure for `CC(C)c1ccc(N2COCN(C)C2=O)cc1F`: 45 °C; for `CC(C)C(=O)NCc1cccc2c1C(=O)N(C1CCC(=O)NC1=O)C2=O` (configuration not stated): 218 to 220 °C; for `C#Cc1ccc(OC)c(OC)c1`: 71 to 72 °C.
Regarding `CCNC(=O)Nc1nc2cc(-c3cccnc3)cc(-c3nc(C)no3)n2n1`, the melting point was 298 to 301 °C.
To `Cc1cc2c(=O)c3ccccc3oc2c2c1OC(C(=O)O)C2` (configuration not stated) belongs 292 to 295 °C; to `N#Cc1ccccc1N1CCN(CNC(=O)c2cccc(Cl)c2)CC1`, 143 to 146 °C; to `CC(O)C#CC1(C)C=CN=C(N)N1` (configuration not stated), 155 °C.
As to `COc1ccc(C(=O)Nc2ccc(-c3ccc(C)cc3Cl)cc2)cc1CCCN(C)C`, the melting point is 63 to 66 °C.
To `CCOc1cc(CO)ccc1OCc1nc(-c2ccccc2)oc1C` belongs 130 to 131 °C.
The compound `COc1ccc(-c2cnn3c(N)c(-c4ccc(F)c(F)c4)c(C)nc23)cc1OC` registered a melting point of 230 to 235 °C.
As to `CSc1ccccc1C(=O)Nc1ccccc1`, the melting point is 148 to 149 °C.
`O=C(O)[C@@H]1CSC(c2ccccc2O)N1C(=O)CCS` (some centres not stated) gave a melting point of 146 to 148 °C.
The same measure for `CCc1cc(-c2nc3ccccc3s2)ccc1N`: 118 to 120 °C.
The same measure for `COc1ccc2c(=O)[nH]ncc2c1`: 200 to 205 °C; for `Nc1sc2c(c1C(=O)c1ccc(Cl)cc1)CCNC2`: 164 to 166 °C; for `COc1ccc(CSc2nnc(-c3ccc4c(c3)CCO4)o2)cc1`: 121 to 124 °C.
To `CC(=O)NC[C@H]1CN(c2ccc(N3CCC(=C(C#N)c4cccs4)CC3)c(F)c2)C(=O)O1` belongs 260 to 263 °C; to `CCCCCCCCCCC1CN(O)C(=O)N1C` (configuration not stated), 47 to 48 °C.
Take `COc1ccc(Cn2nc(-c3ccc(SC)cc3)c(-c3ccc(F)cc3)cc2=O)cc1`: the melting point was in the range of 165 to 166 °C.
To `COC(=O)c1ccc(NS(=O)(=O)c2cc(OCC(F)(F)F)cc(OCC(F)(F)F)c2)cn1` belongs 158 to 160 °C; to `CCOC(=O)c1cc(OC(C)=O)c2cc(OC)ccc2c1`, 104 °C; to `CSC1=NC=C(I)C(c2nnn(C)n2)(C(F)(F)F)N1` (configuration not stated), 113 to 118 °C.
In turn, `COc1cccc([C@H]2O[C@H](CC(=O)Nc3cc(OC(C)C)c4oc(C(=O)O)cc4c3)C(=O)N(CC(C)(C)CO)c3ccc(Cl)cc32)c1OC` showed a melting point of 189 to 190 °C.
The same measure for `O=C(O)c1ccc(Cc2ccccc2)cn1`: 145 to 147 °C; for `CN(CCO)c1ccnc(CSc2nc3ccccc3[nH]2)c1Cl`: 132 to 135 °C.
The compound `Nn1c(=O)c(=O)[nH]c2c(Br)cc(F)cc21` yielded a melting point of 293 to 295 °C.
To `C#Cc1cccc(Oc2ccc([N+](=O)[O-])c([N+](=O)[O-])c2)c1` belongs 68 to 69 °C.
The same measure for `CN1[C@H](Cc2ccc(C(N)=NO)cc2)[C@@H]2C(=O)N(Cc3ccccc3)C(=O)[C@@H]2C1(C)C` (racemic): 189 to 192 °C.
